Assay results from US12295997B2, “Prostate neoantigens and their uses” (Janssen Biotech, Inc., priority 2020, dated 2025).

How the values were obtained:
[1] = tested on: CD8+ T cells in PBMCs from human patients with metastatic castrate-resistant prostate cancer; assay: Patient PBMC restimulation assay (in vitro immunogenicity, TNFα/IFNγ intracellular flow cytometry); type: cell-based; settings: 9-mer peptide; for Maximum frequency of TNFα^+IFNγ^+CD8^+ T cells (Percent): greatest frequency among all tested PBMC donors; for Immunogenic: patient PBMC restimulation; for Maximum fold change over negative control: TNFα+IFNγ+CD8+ T cells, highest across PBMC donors evaluated
Procedure: PBMCs from human patients with metastatic castrate-resistant prostate cancer were thawed using media (RPMI 1640 supplemented with Glutamax, 10% HI FBS, and 1× Sodium Pyruvate). Cells were counted and plated in a 96 well round bottom microplate at a concentration of 250,000 viable cells per well. Lyophilized peptides were solubilized in 100% DMSO and diluted in media to 10 μg/mL. Neoantigen peptides were added in equal volume to PBMCs for a final concentration of 5 μg/mL. CEF Peptide Pool “Plus” (Cellular Technologies, Ltd.) was utilized as a positive control and DMSO at the same final concentration as the experimental peptides was utilized as a negative control. Human IL-15 (Peprotech) was added to all wells at final concentration of 10 ng/mL.
Plates were incubated at 37° C. (5% CO2) for a total of 13 days. Media was refreshed every 2 days with IL-15 (10 ng/mL final concentration) and IL-2 (R&D systems, 10 IU/mL final concentration). On day 12, PBMCs were re-stimulated with identical experimental peptides or controls, at same concentration as peptide stimulation on Day 1. After 1-hour incubation, protein Inhibitor Cocktail (eBioscience) was added to every well and plate was incubated overnight.
On day 13, cells were stained for intracellular flow cytometry analysis. The cells were washed with PBS and stained with Live/Dead Fixable Aqua Dead Cell stain (Thermo-Fisher). Following the live/dead stain, cells were blocked using Biotin-Free Fc Receptor Blocker (Accurate Chemical & Scientific Corp). Extracellular cellular flow panel ([…] per well in 50 μL) consisted of CD3 PerCP-Cy5.5 (Biolegend), CD4 BV421 (Biolegend), and CD8 APC-Cy7 (Biolegend). After extracellular staining, cells were fixed using Foxp3/fTranscription Factor Staining Buffer Set (eBioscience) and stained for intracellular proteins (1:50 dilution) using TNFα FITC (R&D Systems) and IFNγ BV785 (Biolegend). Cells were washed and resuspended in stain buffer and analyzed using a BD Celesta flow cytometer.
Flow cytometry cell staining analysis was completed using FlowJo v10. Cells were gated on live, singlet, CD3+ cells. The CD8+ T cells were analyzed for TNFα/IFNγ expression and the frequency of double positive TNFα/IFNγ CD8+ T cells was recorded. Responses were assessed to be positive when the frequency of double positive TNFα/IFNγ CD8+ T cells due to stimulation with an experimental peptide was increased greater than or equal to 2-fold over the DMSO only negative control for that patient. Peptides were analyzed in 1 to 7 patient samples.
The 9 mer fragments shown in Table 13 were assessed for their ability to activate T cells using the Patient PBMC restimulation assay described in Example 1 using TNFα and IFNγ production by CD8^+ T cells as a readout. Self-antigens shown in Table 15 were also used in the assays. […] PBMCs from ten patients were evaluated.

[2] = molecular target: HLA-A*01:01 (Homo sapiens, UniProt P04439, A114D/A174V/A182V/D101N/D185E/E176A/E190D/L180R/Q94H/R68K/S129P/T187R/V100A/V91M/W191G); assay: In vitro binding of neoantigens to class I MHC (UV peptide exchange, HLA class I ELISA); settings: 100% = same binding as positive control peptide
Procedure: (§1) The 9 mer peptides identified by bioinformatics analysis were analyzed for their binding propensities to 6 common HLA class I alleles (HLA-A*01:01, A*02:01, A*03:01, A*24:02, B*07:02, B*08:01). The principle of the method is briefly described below and consists of two parts, one involving exchange of peptide with a positive control induced by Ultraviolet (UV) radiation, and the second is an enzyme immunoassay to detect stable HLA-peptide and empty HLA complexes.
(§2) HLA-bound peptides are critical for the stability of the HLA complex. A conditional HLA class I complex was stabilized by an UV-labile peptide utilizing a different peptide (Pos) for each HLA (Pos: HLA-A*01:01: […](SEQ ID NO: 409), HLA-A*02:01: […] (SEQ ID NO: 410), HLA-A*03:01: […] (SEQ ID NO: 411), HLA-A*24:02: […] (SEQ ID NO: 412), HLA-B*07:02: […] (SEQ ID NO: 413), HLA-B*08:01: […] (SEQ ID NO: 414), which could be cleaved by UV irradiation when bound to the HLA molecule. Upon cleavage, the resulting peptide fragments dissociated from the HLA class I complex since their length was insufficient to bind stably to HLA. Under the conditions in which peptide cleavage was performed (neutral pH, on melting ice), the peptide-free HLA complex remained stable.
(§3) The exchange efficiency between the peptide of interest and Pos was analyzed using an HLA class I ELISA. The combined technologies allowed the identification of ligands for an HLA molecule of interest which are potentially immunogenic.
(§4) Exchange control peptide Pos was a high affinity binder to the relevant HLA class I allele while exchange control peptide Neg was a non-binder. The UV control represented UV-irradiation of conditional HLA class I complex in the absence of a rescue peptide.
(§5) The HLA class I ELISA is an enzyme immunoassay based on the detection of beta2-microglobulin (B2M) of (peptide-stabilized) HLA class I complexes. To this end streptavidin was bound onto polystyrene microtiter wells. After washing and blocking, HLA complex present in exchange reaction mixtures or ELISA controls was captured by the streptavidin on the microtiter plate via its biotinylated heavy chain. Non-bound material was removed by washing. Subsequently, horseradish peroxidase (HRP)-conjugated antibody to human B2M was added. The HRP-conjugated antibody binds only to an intact HLA complex present in the microtiter well because unsuccessful peptide exchange results in disintegration of the original UV-sensitive HLA complex upon UV illumination. In the latter case B2M was removed during the washing step. After removal of non-bound HRP conjugate by washing, a substrate solution was added to the wells. A coloured product formed in proportion to the amount of intact HLA complex present in the samples. After the reaction was terminated by the addition of a stop solution, absorbance was measured in a microtiter plate reader. The absorbance was normalized to the absorbance of an exchange control peptide (represents 100%). Suboptimal HLA binding of peptides with a moderate to low affinity for HLA class I molecules can also be detected by this ELISA technique (Rodenko, B et al. (2006) Nature Protocols 1: 1120-32).
(§6) Peptides that had 10% or greater exchange efficiency in one of the 6 HLA alleles were considered for further immunogenicity testing and analysis.
(§7) Binding of select neoepitopes to HLA-A*01:01, HLA-A*02:01, HLA-A*03:01, HLAA*24:02, HLAAB*07:02 and HLA-B*08:01 was evaluated using the assay described in Example 1. […] As a criterion for further evaluation, peptides with an exchange rate of at least 10% with the corresponding Pos peptide for at least one of the 6 HLA alleles that we considered for further evaluation. The exchange rates with the allele specific Pos peptides, of the 24 neoantigens so identified are summarized below in Table 17. Higher percentages correspond to stronger binding to the HLA allele. […]

[3] = molecular target: HLA-A*02:01 (Homo sapiens, UniProt P04439, D140Y/D185E/D98H/E176V/E277Q/G131W/G231S/I119V/I121R/I166T/I218V/L300P/L318F/N151K/N90K/P208A/P217A/Q86G/Q94H/R138H/R169H/T345S); assay: as above; settings: 100% = same binding as positive control peptide
Procedure: as §1, §2, §3, §4, §5, §6, §7

[4] = molecular target: HLA-A*24:02 (Homo sapiens, UniProt P04439, D101N/D140Y/D185E/E176V/E190D/F33S/G103R/G107R/I119L/I121M/I306V/K335N/L105A/L180Q/L300P/N151K/N90K/Q86E/Q94H/R106L/R138H/R89G/T104I/T345S/V100E/W191G/Y123F); assay: as above; settings: 100% = same binding as positive control peptide
Procedure: as §1, §2, §3, §4, §5, §6, §7

[5] = molecular target: HLA-B*07:02 (Homo sapiens, UniProt P01889); assay: as above; settings: 100% = same binding as positive control peptide
Procedure: as §1, §2, §3, §4, §5, §6, §7

[6] = molecular target: HLA-A*03:01 (Homo sapiens, UniProt P04439); assay: as above; settings: 100% = same binding as positive control peptide
Procedure: as §1, §2, §3, §4, §5, §6
Binding of select neoepitopes to HLA-A*01:01, HLA-A*02:01, HLA-A*03:01, HLAA*24:02, HLAAB*07:02 and HLA-B*08:01 was evaluated using the assay described in Example 1. […] As a criterion for further evaluation, peptides with an exchange rate of at least 10% with the corresponding Pos peptide for at least one of the 6 HLA alleles that we considered for further evaluation. The exchange rates with the allele specific Pos peptides, of the 24 neoantigens so identified are summarized below in Table 17. Higher percentages correspond to stronger binding to the HLA allele.

[7] = molecular target: HLA-B*08:01 (Homo sapiens, UniProt P01889, A93T/A95T/D138N/E176V/E187T/K202T/Q94N/R180D/S35A/V36M/Y33D/Y91F); assay: as above
Procedure: as §1, §2, §3, §4, §5, §6, §7

[8] = tested on: CD8+ and CD4+ T cells (autologous CD3+ Pan-T cells isolated from human normal PBMCs); assay: Exogenous autologous normal donor restimulation assay (15-mer overlapping peptide pools on CD1c+ dendritic cells, TNFα/IFNγ flow cytometry); type: cell-based; settings: Table 25, 15-mer overlapping peptide pool; for Maximum Fold Change Over Background CD4+ cells: TNFα+IFNγ+ CD4+ T cells; for Maximum Fold Change Over Background CD4+ cells / Maximum Fold Change Over Background CD8+ cells: highest fold change over negative control across normal donors; for Maximum Fold Change Over Background CD8+ cells: TNFα+IFNγ+ CD8+ T cells; for Maximum Frequency of TNFα/IFNγ Double Positive CD4+ T cells / Maximum Frequency of TNFα/IFNγ Double Positive CD8+ T cells: highest frequency across normal donors
How it was run: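 Readout was intracellular TNFα/IFNγ flow cytometry on live CD3+ CD8+ and CD4+ cells after day-11 peptide restimulation. Stimulators were CD1c+ dendritic cells loaded with overlapping 15-mer peptide pools (2.5–10 μg/mL), irradiated, and cultured 12 days with autologous normal-donor Pan-T cells plus IL-15/IL-2. A response counted when ≥3-fold over DMSO control and at least 0.01%.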

| Substance | Maximum frequency of TNFα^+IFNγ^+CD8^+ T cells (Percent) [1] [%] | Immunogenic [1] | Exchange rate with allele specific Pos peptide, HLA-A*01:01 [2] [%] | Exchange rate with allele specific Pos peptide, HLA-A*24:02 [4] [%] | Exchange rate with allele specific Pos peptide, HLA-B*07:02 [5] [%] | Exchange rate with allele specific Pos peptide, HLA-A*03:01 [6] [%] | Maximum fold change over negative control [1] | also measured |
| --- | --- | --- | --- | --- | --- | --- | --- | --- |
| P76 (YCMAAPMGL) [Peptide P76] | 0.170 | Yes | 0.1 | −0.5 | 91.5 | 6 |  | Exchange rate with allele specific Pos peptide, HLA-A*02:01 [3]: 85.9% |
| P48 (VQPIARELYQFTFDLLI; listed as Homo sapiens) [Peptide P48] | 0.220 | Yes | 4.3 | 0.1 | 12.8 | 4.4 |  | Exchange rate with allele specific Pos peptide, HLA-A*02:01 [3]: 99.3% |
| 8 (QLIAMDSAI; listed as Homo sapiens) [Peptide 8] |  |  |  |  |  |  |  | Exch I (%) ([7]; Binding to HLA-B*08:01, UV peptide exchange, replicate I, Pos = 100): 8.0%; Exch II (%) ([7]; Binding to HLA-B*08:01, UV peptide exchange, replicate II, Pos = 100): 7.8%; Average % ([7]; Binding to HLA-B*08:01, average of Exch I and Exch II): 7.9% |
| GVPGDSTRRAVRRMNTF (listed as Homo sapiens) [Neoantigen P16] | 4.620 | Yes |  |  |  |  | 65.82 | Maximum Fold Change Over Background CD4+ cells [8]: 2.44; Maximum Fold Change Over Background CD8+ cells [8]: 2.44; Maximum Frequency of TNFα/IFNγ Double Positive CD4+ T cells [8]: 0.039; Maximum Frequency of TNFα/IFNγ Double Positive CD8+ T cells [8]: 0.039 |
| P77 (FFKRAAEGF) [Peptide P77] | 0.160 | Yes |  |  |  |  | 3.24 |  |
| P17 (GVPGDSTRRAVRRMNTF; listed as Homo sapiens) [Peptide P17] | 0.130 | Yes | 4.9 | 0.1 | 38.7 | 3.8 |  | Exchange rate with allele specific Pos peptide, HLA-B*08:01 ([7]; 100% = same binding as positive control peptide): 9% |
| NSKMALNSLNSIDDAQLTRIAPPRSHCCFWEVNAP (listed as Homo sapiens) [Neoantigen P35] | 0.064 | Yes |  |  |  |  | 2.67 | Maximum Fold Change Over Background CD4+ cells [8]: 3.47; Maximum Fold Change Over Background CD8+ cells [8]: 14.44; Maximum Frequency of TNFα/IFNγ Double Positive CD4+ T cells [8]: 0.03; Maximum Frequency of TNFα/IFNγ Double Positive CD8+ T cells [8]: 0.26 |
| P37 (MAGGVLRRLLCREPDRDGDKGASREETVVPLHIGDPVVLPGIGQCYSALF; listed as Homo sapiens) [Peptide P37] | 1.160 | Yes |  |  |  |  | 3.13 |  |
| P59 (LHPDSGNMVENGCYLRR; listed as Homo sapiens) [Peptide P59] | 3.010 | Yes |  |  |  |  | 10.75 |  |
